Measured values as given in PubChem BioAssay AID1963869 (Molecular Pharmacology Branch, DTP, NCI, 2024).
Where “and” joins values, the source holds several entries; their conditions need not be identical. Equal entries are not always repeated.

Test system: KRAS patient-derived spheroids with HUVEC/MSC, viability
Experiment: Anticancer human tumor 323965-272-R-J2-PDC patient-derived pancreatic carcinoma cell line growth inhibition [KRAS2]
Conditions: for viability, T/C: stronger effect = lower value
In short: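 KRAS-mutant tumor cells were grown as spheroids with HUVEC endothelial cells and human MSCs as stroma. Targeted agents were tested alone and with KRAS pathway inhibitors. Doses started at or near clinical Cmax, or 10 microM, descending half-log.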

[1] = curve of first compound, second compound 0.1 µM
[2] = curve of first compound, second compound 0.316 µM
[3] = curve of first compound, second compound 1 µM
[4] = curve of first compound, second compound 3.16 µM
[5] = second compound 0.1 µM, first compound 0.0316 µM
[6] = second compound 0.1 µM, first compound 0.1 µM
[7] = second compound 0.1 µM, first compound 0.316 µM
[8] = second compound 0.1 µM, first compound 1 µM
[9] = second compound 0.1 µM, first compound 3.16 µM
[10] = second compound 0.316 µM, first compound 0.0316 µM
[11] = second compound 0.316 µM, first compound 0.1 µM
[12] = second compound 0.316 µM, first compound 0.316 µM
[13] = second compound 0.316 µM, first compound 1 µM
[14] = second compound 0.316 µM, first compound 3.16 µM
[15] = second compound 1 µM, first compound 0.0316 µM
[16] = second compound 1 µM, first compound 0.1 µM
[17] = second compound 1 µM, first compound 0.316 µM
[18] = second compound 1 µM, first compound 1 µM
[19] = second compound 1 µM, first compound 3.16 µM
[20] = second compound 3.16 µM, first compound 0.0316 µM
[21] = second compound 3.16 µM, first compound 0.1 µM
[22] = second compound 3.16 µM, first compound 0.316 µM
[23] = second compound 3.16 µM, first compound 1 µM
[24] = second compound 3.16 µM, first compound 3.16 µM
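Further: spheroids exposed to agents for 7 days.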
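Wherever viability, T/C is given: 100% = DMSO vehicle control viability.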

In the case of CC(C)NCC(C(=O)N1CCN(c2ncnc3c2C(C)CC3O)CC1)c1ccc(Cl)cc1 (stereo unspecified) + C=CC(=O)N1CCN(c2nc(OCC3CCCN3C)nc3c2CCN(c2cccc4cccc(C)c24)C3)CC1CC#N, the IC50 (curve of first compound, second compound 0.0316 µM) is reported as 0.489 µM, the IC50 [1] is reported as 0.251 µM and the IC50 [2] is reported as 0.132 µM. The IC50 [3] was 0.118 µM, the IC50 [4] was under 0.0316 µM and the viability, T/C (second compound 0.0316 µM, first compound 0.0316 µM) was 64.4%. For the same compound, the viability, T/C (second compound 0.0316 µM, first compound 0.1 µM) was 62.4%, the viability, T/C (second compound 0.0316 µM, first compound 0.316 µM) was 54.3% and the viability, T/C (second compound 0.0316 µM, first compound 1 µM) was 42.2%. It also gave a viability, T/C (second compound 0.0316 µM, first compound 3.16 µM) of 35.7%, a viability, T/C (second compound 0.0316 µM, first compound 10 µM) of 29.8% and a viability, T/C [5] of 64.5%. The viability, T/C [6] was 54.9%, the viability, T/C [7] was 50.2% and the viability, T/C [8] was 39.2%. The viability, T/C [9] was 30.8%, the viability, T/C (second compound 0.1 µM, first compound 10 µM) was 29.1% and the viability, T/C [10] was 58.8%. For the same compound, the viability, T/C [11] was 50.6%, the viability, T/C [12] was 44.1% and the viability, T/C [13] was 31.8%. For the same compound, the viability, T/C [14] was 26.2%, the viability, T/C (second compound 0.316 µM, first compound 10 µM) was 26.3% and the viability, T/C [15] was 57.7%. It also gave a viability, T/C [16] of 53.6%, a viability, T/C [17] of 38.6% and a viability, T/C [18] of 33.4%. The viability, T/C [19] was 26.4%, the viability, T/C (second compound 1 µM, first compound 10 µM) was 23.1% and the viability, T/C [20] was 10.2%. It also gave a viability, T/C [21] of 6.16%, a viability, T/C [22] of 5.23% and a viability, T/C [23] of 4.82%. It also gave a viability, T/C [24] of 3.02% and a viability, T/C (second compound 3.16 µM, first compound 10 µM) of 1.82%.
Work on CC1COCCN1c1cc(-c2ccnn2C)c2ccnc(-c3ccn[nH]3)c2n1 (stereo unspecified) + COc1cc2nc(C)nc(NC(C)c3cc(N)cc(C(F)(F)F)c3)c2cc1OC1CCOC1 yielded an IC50 [1] of 0.0149 µM, an IC50 [2] of 0.011 µM and an IC50 [3] of 0.0113 µM. For the same compound, the IC50 [4] was 0.0105 µM, the IC50 (curve of first compound, second compound 10 µM) was under 0.01 µM and the viability, T/C (second compound 0.1 µM, first compound 0.01 µM) was 62%. It also gave a viability, T/C [5] of 26.8%, a viability, T/C [6] of 16.5% and a viability, T/C [7] of 12.8%. It also gave a viability, T/C [8] of 11.5%, a viability, T/C [9] of 12.2% and a viability, T/C (second compound 0.316 µM, first compound 0.01 µM) of 52.5%. For the same compound, the viability, T/C [10] was 24.2%, the viability, T/C [11] was 13.1% and the viability, T/C [12] was 12%. It also gave a viability, T/C [13] of 11.6%, a viability, T/C [14] of 11.6% and a viability, T/C (second compound 1 µM, first compound 0.01 µM) of 53.5%. It also gave a viability, T/C [15] of 21.4%, a viability, T/C [16] of 12.4% and a viability, T/C [17] of 10.3%. The viability, T/C [18] was 10%, the viability, T/C [19] was 11% and the viability, T/C (second compound 3.16 µM, first compound 0.01 µM) was 51.4%. The viability, T/C [20] was 19.5%, the viability, T/C [21] was 9.99% and the viability, T/C [22] was 9.71%. For the same compound, the viability, T/C [23] was 9.06%, the viability, T/C [24] was 9.91% and the viability, T/C (second compound 10 µM, first compound 0.01 µM) was 41.9%. For the same compound, the viability, T/C (second compound 10 µM, first compound 0.0316 µM) was 20.9%, the viability, T/C (second compound 10 µM, first compound 0.1 µM) was 9.39% and the viability, T/C (second compound 10 µM, first compound 0.316 µM) was 9.15%. The viability, T/C (second compound 10 µM, first compound 1 µM) was 7.92% and the viability, T/C (second compound 10 µM, first compound 3.16 µM) was 6.55%.
For Cn1nccc1Nc1nccc(-c2cc3c(s2)C(C)(C)N(CCN2CCOCC2)C3=O)n1, the viability, T/C (compound 0.0316 µM) was 92.9% [middle of 5 runs], the viability, T/C (compound 0.1 µM) was 87.8% [middle of 5 runs] and the viability, T/C (compound 0.316 µM) was 77.6% [middle of 5 runs]. For the same compound, the viability, T/C (compound 1 µM) was 61.5% [middle of 5 runs], the viability, T/C (compound 3.16 µM) was 43.7% [middle of 5 runs] and the viability, T/C (compound 10 µM) was 38.1% [middle of 5 runs]. For the same compound, the IC50 (curve of compound) was 2.35 µM [middle of 5 runs].
With CC(=O)OC12COC1CC(O)C1(C)C(=O)C(O)C3=C(C)C(OC(=O)C(O)C(NC(=O)OC(C)(C)C)c4ccccc4)CC(O)(C(OC(=O)c4ccccc4)C21)C3(C)C (stereo unspecified) the viability, T/C (compound 0.01 µM) was 35.9% [middle of 5 runs], the viability, T/C (compound 0.0316 µM) was 35.4% [middle of 5 runs] and the viability, T/C (compound 0.1 µM) was 32.5% [middle of 5 runs]. The viability, T/C (compound 0.316 µM) was 36.5% [middle of 5 runs], the viability, T/C (compound 1 µM) was 34% [middle of 5 runs] and the viability, T/C (compound 3.16 µM) was 34.3% [middle of 5 runs]. For the same compound, the IC50 (curve of compound) was under 0.01 µM.
In the case of COc1cc2nccc(Oc3ccc(NC(=O)C4(C(=O)Nc5ccc(F)cc5)CC4)cc3)c2cc1OC, the viability, T/C (compound 0.0316 µM) is reported as 100% [middle of 5 runs], the viability, T/C (compound 0.1 µM) is reported as 104% [middle of 5 runs] and the viability, T/C (compound 0.316 µM) is reported as 96.2% [middle of 5 runs]. For the same compound, the viability, T/C (compound 1 µM) was 104% (2×) and 101% (2×) and 99.7%, the viability, T/C (compound 3.16 µM) was 92.9% [middle of 5 runs] and the viability, T/C (compound 10 µM) was 87.7% [middle of 5 runs]. The IC50 (curve of compound) was over 10 µM.
